Reference: US10092578B2, “Active agents and their oligomers and polymers” (Polymerix Corporation, priority 2006, dated 2018)
≈ marks a conversion by molar mass, not a printed value.

Tests used:
[1] = system: human derived Staphylococcus epidermidis; assay: Minimum Inhibitory Concentration (MIC) assessment, Staph epidermidis; assay type: cell-based; details: for antibacterial activity (in words): MIC test, summary of Table 3; for MIC: Staphylococcus epidermidis, 24 hours, particle suspensions in water, read-out: MIC versus Staph epidermidis
Description: (§1) Samples of Examples 1 and 2 and Comparative Example 1 were evaluated in two different bacterial growth assays. The first test was a standard Minimum Inhibitory Concentration (MIC) assessment involving serial dilution of test compound particle suspensions in water. In this test, the samples were evaluated at 24 hours against human derived Staphylococcus epidermidis and Corynebacter sp. form organisms. The second test utilized a Biosys® system to assess the effect of the samples added as a dry powder directly to a nutrient broth containing either human derived Staph epidermidis or a mixed Coryne/Staph milieu. In the case of the Biosys test, the bacteria laced nutrient broth alone was used as the negative control.

[2] = Hydrolytic release of salicylic acid in buffer at 32° C., HPLC; assay type: physicochemical; details: acetate buffer pH 5.5, 32° C.
Description: Examples 1, 3 and 4 (both A & B) and Comparative Examples 1 and 2 were evaluated for rate of release of salicylic acid. Samples were hydrolyzed at 32° C. using acetate buffer (pH 5.5) as relevant condition for typical skin pH. The materials were placed in 50 mL centrifuge tubes for elution using conventional elution protocols, shaking the tubes in a thermostatic environment. Aliquots were taken from the tubes at periodic intervals and immediately placed in a vial and analyzed by HPLC as soon as they were removed from the hydrolysis vessel.
The respective salicylic acid release rates of the Example 4A and Example 4B at pH 5.5 are compared in FIG. 5. The rates of Example 4B at pH of 5.5 and 7.29 are compared in FIG. 6.

[3] = Particle size determination by light scattering; assay type: physicochemical; details: for Average % of particles below 10 μm / Average % of particles below 100 μm / Average % of particles below 200 μm: average of 3 samples; for Volume Mean Particle Diameter: light scattering
Text: Light scattering techniques were employed to assess the particle size distributions of samples of the compositions of Examples 1 and 2 and Comparative Example 1.

[4] = system: human derived Staph epidermidis; assay: Biosys bacterial growth test, Staph epidermidis; assay type: cell-based, Staphylococcus epidermidis; details: for % Red (average reduction in bacterial growth rates): 24 hours
Description: as §1

[5] = system: mixed Coryne/Staph milieu; assay: Biosys bacterial growth test, mixed Coryne/Staph; assay type: cell-based, Corynebacter/Staph; details: for % Red (average reduction in bacterial growth rates): 24 hours
Description: as §1

[6] = Salicylic acid release into artificial sweat; assay type: physicochemical; details: 35° C.
Description: FIG. 1 illustrates salicylic acid release at 35° C. Samples of Example 1 (square), Example 2 (triangle) and Comparative Example 1 (diamond) were placed in artificial sweat or artificial sweat plus proteins and incubated at 35° C. for 3 to 5 minutes, 1, 2, 4, 6 and 24 hours, rapidly filtered (0.22 μm filter) and analyzed for salicylic acid by HPLC.
Samples of Example 1 and 2 and Comparative Example 1 were placed in artificial sweat or artificial sweat plus proteins and incubated at 35° C. for 3 to 5 minutes, 1, 2, 4, 6 and 24 hours, rapidly filtered (0.22 μm filter) and analyzed for salicylic acid by HPLC.

[7] = system: Corynebacter sp. form organisms; assay: Minimum Inhibitory Concentration (MIC) assessment, Coryne form; assay type: cell-based; details: 24 hours, particle suspensions in water; read-out: MIC versus Coryne form
Description: as §1

SMILES	antibacterial activity (in words) [1]	MIC [1] [µg/mL]	Average % of particles below 10 μm [3] [%]	Average % of particles below 100 μm [3] [%]	Average % of particles below 200 μm [3] [%]	Volume Mean Particle Diameter [3] [μm]	% Red (average reduction in bacterial growth rates) ([4]; 0.25 mg/ml) [%]	% Red (average reduction in bacterial growth rates) ([4]; 0.5 mg/ml) [%]	% Red (average reduction in bacterial growth rates) ([4]; 2.5 mg/ml) [%]	% Red (average reduction in bacterial growth rates) ([4]; 5 mg/ml) [%]	% Red (average reduction in bacterial growth rates) ([4]; 50 mg/ml) [%]	% Red (average reduction in bacterial growth rates) ([5]; 0.25 mg/ml) [%]	% Red (average reduction in bacterial growth rates) ([5]; 0.5 mg/ml) [%]	% Red (average reduction in bacterial growth rates) ([5]; 2.5 mg/ml) [%]	% Red (average reduction in bacterial growth rates) ([5]; 5 mg/ml) [%]	% Red (average reduction in bacterial growth rates) ([5]; 50 mg/ml) [%]	salicylic acid release rate (in words) [6]	Salicylic Acid Release (Weight Percent of Maximum Release) ([6]; 0.05 hrs)	Salicylic Acid Release (Weight Percent of Maximum Release) ([6]; 1 hr)	Salicylic Acid Release (Weight Percent of Maximum Release) ([6]; 2 hrs)	other results
O=C(CCCCC(=O)Oc1ccccc1C(=O)O)Oc1ccccc1C(=O)O [Comparative Example 1, Bis(2-carboxyphenyl)adipate, reference compound]	little or no	> 1670	32.1	96.03	99.99	28.85	0	57	63	100	100	0	5	6	100	100	more moderate	1.46 Weight Percent of Maximum Release	4.93 Weight Percent of Maximum Release	6.03 Weight Percent of Maximum Release	hydrolysis completion ([2]; in four days): about 90%; Salicylic Acid Release (Weight Percent of Maximum Release) ([6]; 4 hrs): 6.81 Weight Percent of Maximum Release; Salicylic Acid Release (Weight Percent of Maximum Release) ([6]; 6 hrs): 10.06 Weight Percent of Maximum Release; Salicylic Acid Release (Weight Percent of Maximum Release) ([6]; 24 hrs): 26.42 Weight Percent of Maximum Release; MIC [7]: > 1670 µg/mL
O=C(COCC(=O)Oc1ccccc1C(=O)O)Oc1ccccc1C(=O)O [Example 1, Bis(2-carboxyphenyl)diglycolate]	strongest	200 to 1000 (≈ 0.534 to 2.67 mM)	11.87	91.69	99.58	45.64	10	95	100	100	100	66	29	100	100	100	rapid initial	20.035 Weight Percent of Maximum Release	45.525 Weight Percent of Maximum Release	54.910 Weight Percent of Maximum Release	time until hydrolysis is complete [2]: 2.5 h; antibacterial activity (in words) ([4]; Biosys, summary of Table 4): strongest; antibacterial activity (in words) ([5]; Biosys, summary of Table 5): strongest; Salicylic Acid Release (Weight Percent of Maximum Release) ([6]; 4 hrs): 59.795 Weight Percent of Maximum Release; Salicylic Acid Release (Weight Percent of Maximum Release) ([6]; 6 hrs): 54.890 Weight Percent of Maximum Release; Salicylic Acid Release (Weight Percent of Maximum Release) ([6]; 24 hrs): 64.520 Weight Percent of Maximum Release; MIC [7]: ~200 µg/mL (≈ 0.534 mM)
O=C(COCCOCC(=O)Oc1ccccc1C(=O)O)Oc1ccccc1C(=O)O [Example 2, Bis(2-carboxyphenyl)-3,6-dioxaoctanedioate]	modest	~2500 (≈ 5.98 mM)	37.54	80.89	99.39	48.82	0	0	50	100	100	5	0	100	100	100	rapid initial	35.25 Weight Percent of Maximum Release	47.44 Weight Percent of Maximum Release	44.85 Weight Percent of Maximum Release	Particle size distribution, Comments [3]: Bimodal size; Salicylic Acid Release (Weight Percent of Maximum Release) ([6]; 4 hrs): 46.07 Weight Percent of Maximum Release; Salicylic Acid Release (Weight Percent of Maximum Release) ([6]; 6 hrs): 51.20 Weight Percent of Maximum Release; Salicylic Acid Release (Weight Percent of Maximum Release) ([6]; 24 hrs): 58.23 Weight Percent of Maximum Release
